Measured values from patent US20240103005A1, “N-ACRYLOYLINDOLES AND METHODS OF USE” (The University of Hong Kong, priority 2022, published 2024).

Tests used:
[1] = system: HepG2 cells; assay: Gel-based ABPP, Cys labeling in live HepG2 cells; format: cell-based; details: 10 μM, three incubation time intervals
Procedure: In-Gel Fluorescence for Visualizing Cys Labeling by NAIAs and IAA in Live Cells
231MFP or HepG2 cells were grown in 10-cm plates in complete medium. At ca. 80% confluency, the cells were treated with DMSO solvent control, NAIA-4, NAIA-5, or IAA at indicated concentrations in complete medium for indicated time interval. The cells were then washed by DPBS and lysed by probe sonication in DPBS. Cell debris were removed by centrifugation at 1,000 g for 5 min. Protein concentration of the lysates was determined by BCA assay, and the lysates were diluted to 2 mg/mL by DPBS. 50 μL of the lysates were labeled with azide-fluor 545 by CuAAC according to the procedures described above. The samples were then added with 4× reducing Laemmli SDS sample loading buffer, boiled at 90° C. for 5 min, and separated by molecular weight on precast 4-20% TGX gels and scanned by ChemiDoc MP for measuring in-gel fluorescence. After that, the gel was stained with SimplyBlue™ SafeStain as described above, washed and scanned by ChemiDoc MP for imaging the blue staining.
In view of the success in labeling cysteines in cell lysates, we then proceeded to apply NAIA for capturing reactive cysteines in live cells. […] After protein assay and normalization, the protein samples were subjected to click reaction with azide-fluor 545, followed by SDS-PAGE and in-gel fluorescence measurement. […]

[2] = system: HepG2 cells; assay: MS-based ABPP, live-cell cysteine labeling of HepG2 cells; set-up: species or system human; details: 10 μM, 1 h
Procedure: MS-Based ABPP Experiments to Identify Liganded Cysteines in HepG2 Cells by Live-Cell Labeling Using NAIA-5 or IAA.
HepG2 cells were plated on 15 cm tissue culture plates and allowed to grow in complete medium at 37° C. with 5% CO2 to ca. 80% confluency. The cells were then treated with NAIA-5 and IAA (10 μM), respectively, in complete medium and incubated at 37° C. with 5% CO2 for 1 h. The cells were washed, scrapped in PBS and lysed by sonication. After BCA assay, the cell lysates were diluted to 2 mg/mL, and 2 mL of the lysates were used for n=1 sample preparation. The lysates were then subjected to CuAAC reaction with DTB-PEG-azide, acetone precipitation, enrichment by streptavidin beads, reduction by TCEP followed by cysteine carbamidomethylation and tryptic digestion according to the same procedure described for the sample preparation of HepG2 cell lysate experiment except no pairing of the NAIA-5- and IAA-labeled samples. The probe-modified peptides were then eluted by elution buffer solution (MeCN/H2O, 1:1, v/v; with 0.1% formic acid), dried, desalted by C18 Stage tips and sent for LC-MS/MS analysis using Aurora C18 UHPLC column (75 μm i.d.×25 cm length×1.6 μm particle size; IonOpticks, Australia) coupled to timsTOF Pro mass spectrometer (Bruker), with the same experimental settings as described for the experiment on HepG2 cell lysates. […]

C#CCCCCNC(=O)COc1ccc2c(ccn2C(=O)C=C)c1 [NAIA-5]
cysteine labeling in live cells (in-gel fluorescence) compared with IAA [1]: better cysteine labeling than IAA at 10 μM for all the three incubation time intervals
number of labeled cysteines in live cells compared with IAA [2]: higher number of labeled cysteines than IAA
